Measured values taken from US9546172B2, “Pyrazolo[3,4-d]pyrimidine and pyrazolo[2,3-d]pyrimidine compounds as kinase inhibitors” (Pharmacyclics LLC, priority 2011, dated 2017).

Experiments:
Format in all cases: biochemical
Tec = biological target: T1, Tec (Homo sapiens, UniProt P42680); assay: Tec kinase inhibition
T1 sequence (P42680 1-631): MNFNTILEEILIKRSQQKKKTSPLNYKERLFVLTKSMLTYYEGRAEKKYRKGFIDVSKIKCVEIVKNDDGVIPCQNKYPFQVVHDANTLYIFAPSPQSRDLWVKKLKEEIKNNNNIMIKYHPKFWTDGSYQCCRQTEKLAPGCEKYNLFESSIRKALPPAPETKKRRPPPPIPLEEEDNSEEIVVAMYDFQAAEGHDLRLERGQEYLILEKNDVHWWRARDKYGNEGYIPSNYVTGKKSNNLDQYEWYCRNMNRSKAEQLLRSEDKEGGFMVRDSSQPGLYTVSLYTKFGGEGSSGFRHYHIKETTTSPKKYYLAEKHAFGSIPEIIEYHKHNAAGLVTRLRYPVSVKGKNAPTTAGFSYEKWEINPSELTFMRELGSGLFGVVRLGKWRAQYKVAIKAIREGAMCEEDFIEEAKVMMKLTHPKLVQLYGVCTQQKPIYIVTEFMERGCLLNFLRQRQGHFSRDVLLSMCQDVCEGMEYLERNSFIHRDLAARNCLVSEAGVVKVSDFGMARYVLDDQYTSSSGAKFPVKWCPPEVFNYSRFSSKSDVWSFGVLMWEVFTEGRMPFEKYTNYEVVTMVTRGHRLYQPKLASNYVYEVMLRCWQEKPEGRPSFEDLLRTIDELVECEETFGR
Procedure: (§1) Btk kinase activity was determined using a time-resolved fluorescence resonance energy transfer (TR-FRET) methodology. Measurements were performed in a reaction volume of 50 μL using 96-well assay plates. […] The reaction was quenched by the addition of 1.2 equivalents of EDTA (relative to divalent cation) in 25 μL of 1× Lance buffer (Perkin-Elmer). Streptavidin-APC (Perkin-Elmer) and Eu-labeled p-Tyr100 antibody (Perkin-Elmer) in 1× Lance buffer were added in a 25 μL volume to give final concentrations of 100 nM and 2.5 nM, respectively, and the mixture was allowed to incubate for one hour. The TR-FRET signal was measured on a multimode plate reader with an excitation wavelength (λEx) of 330 nm and detection wavelengths (λEm) of 615 and 665 nm. Activity was determined by the ratio of the fluorescence at 665 nm to that at 615 nm. For each compound, enzyme activity was measured at various concentrations of compound. Negative control reactions were performed in the absence of inhibitor in replicates of six, and two no-enzyme controls were used to determine baseline fluorescence levels Inhibition constants, Ki(app), were obtained using the program BatchKi (Kuzmic et al. (2000), Anal. Biochem. 286:45-50). IC50s were obtained according to the equation: IC50={Ki(app)/(1+[ATP]/Km^ATP)}+[E]total/2; For all kinases, [ATP]=Km^ATP, [Btk]total=0.5 nM and [Lck]total=6 nM.

Btk = biological target: T2, Btk (Homo sapiens, UniProt Q06187); assay: Btk in vitro inhibitory activity (one of Methods A, B, C); settings: determined in one of three in vitro assays (Examples 125-127)
T2 construct: purified from insect cells as a full-length construct containing a N-terminal 6×-His tag; 6xHis (N); host or cells: insect cells (baculovirus Sf21 in Method B)
Method in brief: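 Values come from one of three formats: TR-FRET (665/615 nm ratio; Ki(app) converted to IC50 with [ATP]=Km, 0.5 nM Btk), mobility-shift product/sum ratio over 12 concentrations with 4-parameter fit, or radiometric filter binding using His-tagged full-length human Btk (8 nM), 0.2 mg/mL poly-Glu-Tyr, 1 μM ATP, 120 min RT.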

EGFR = EGFR (Homo sapiens, UniProt P00533); assay: EGFR kinase inhibition
BMX = biological target: T3, BMX (Homo sapiens, UniProt P51813); assay: BMX kinase inhibition
T3 sequence (P51813 1-675): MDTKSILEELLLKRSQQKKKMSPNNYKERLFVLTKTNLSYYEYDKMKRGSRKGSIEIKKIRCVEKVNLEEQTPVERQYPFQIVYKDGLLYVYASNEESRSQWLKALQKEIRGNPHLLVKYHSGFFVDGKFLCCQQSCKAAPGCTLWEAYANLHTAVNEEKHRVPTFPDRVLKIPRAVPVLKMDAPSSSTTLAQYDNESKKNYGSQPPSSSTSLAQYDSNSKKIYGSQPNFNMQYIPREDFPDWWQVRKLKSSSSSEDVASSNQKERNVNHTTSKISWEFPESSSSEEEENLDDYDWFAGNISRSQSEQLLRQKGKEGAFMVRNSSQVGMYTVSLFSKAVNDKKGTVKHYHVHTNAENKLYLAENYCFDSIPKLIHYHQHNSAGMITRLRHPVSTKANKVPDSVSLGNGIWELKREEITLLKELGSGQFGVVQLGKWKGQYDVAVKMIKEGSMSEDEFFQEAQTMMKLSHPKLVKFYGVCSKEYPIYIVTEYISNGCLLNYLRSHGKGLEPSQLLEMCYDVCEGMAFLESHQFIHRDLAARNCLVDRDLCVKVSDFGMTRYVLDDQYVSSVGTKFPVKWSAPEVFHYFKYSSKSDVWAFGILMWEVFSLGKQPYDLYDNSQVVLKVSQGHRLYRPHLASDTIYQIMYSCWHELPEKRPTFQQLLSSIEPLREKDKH

RET = RET (Homo sapiens, UniProt P07949); assay: RET kinase inhibition
Lyn = Lyn (Homo sapiens, UniProt P07948); assay: Lyn kinase inhibition
C-src = C-src (Homo sapiens, UniProt P12931); assay: C-src kinase inhibition
Lck = Lck (Homo sapiens, UniProt P06239); assay: Lck kinase inhibition
Method in brief: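 Signal is the ratio of fluorescence at 665 versus 615 nm (excitation 330 nm), read after stopping kinase reactions with EDTA and a one-hour incubation with detection reagents, Eu anti-p-Tyr100 at 2.5 nM and streptavidin-APC at 100 nM. Inhibition reported as IC50 computed from fitted Ki(app), [ATP]=Km.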

BLK = BLK (Homo sapiens, UniProt P51451); assay: BLK kinase inhibition
Procedure: as §1

CSK = CSK (Homo sapiens, UniProt P41240); assay: CSK kinase inhibition
CSK, sequence (P41240 whole entry): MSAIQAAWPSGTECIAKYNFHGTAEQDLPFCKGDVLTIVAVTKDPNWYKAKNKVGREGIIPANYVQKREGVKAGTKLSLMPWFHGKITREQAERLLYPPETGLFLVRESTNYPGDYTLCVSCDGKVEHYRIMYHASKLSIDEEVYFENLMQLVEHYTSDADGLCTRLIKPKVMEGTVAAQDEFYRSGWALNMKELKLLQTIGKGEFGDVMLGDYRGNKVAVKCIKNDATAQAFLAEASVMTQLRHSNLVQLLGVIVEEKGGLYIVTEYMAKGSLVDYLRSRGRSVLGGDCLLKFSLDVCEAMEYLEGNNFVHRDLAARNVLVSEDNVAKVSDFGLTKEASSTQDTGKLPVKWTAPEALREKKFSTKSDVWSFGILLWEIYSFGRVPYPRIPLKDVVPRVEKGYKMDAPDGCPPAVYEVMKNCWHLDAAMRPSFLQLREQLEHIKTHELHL

T2 sequence (Q06187 whole entry): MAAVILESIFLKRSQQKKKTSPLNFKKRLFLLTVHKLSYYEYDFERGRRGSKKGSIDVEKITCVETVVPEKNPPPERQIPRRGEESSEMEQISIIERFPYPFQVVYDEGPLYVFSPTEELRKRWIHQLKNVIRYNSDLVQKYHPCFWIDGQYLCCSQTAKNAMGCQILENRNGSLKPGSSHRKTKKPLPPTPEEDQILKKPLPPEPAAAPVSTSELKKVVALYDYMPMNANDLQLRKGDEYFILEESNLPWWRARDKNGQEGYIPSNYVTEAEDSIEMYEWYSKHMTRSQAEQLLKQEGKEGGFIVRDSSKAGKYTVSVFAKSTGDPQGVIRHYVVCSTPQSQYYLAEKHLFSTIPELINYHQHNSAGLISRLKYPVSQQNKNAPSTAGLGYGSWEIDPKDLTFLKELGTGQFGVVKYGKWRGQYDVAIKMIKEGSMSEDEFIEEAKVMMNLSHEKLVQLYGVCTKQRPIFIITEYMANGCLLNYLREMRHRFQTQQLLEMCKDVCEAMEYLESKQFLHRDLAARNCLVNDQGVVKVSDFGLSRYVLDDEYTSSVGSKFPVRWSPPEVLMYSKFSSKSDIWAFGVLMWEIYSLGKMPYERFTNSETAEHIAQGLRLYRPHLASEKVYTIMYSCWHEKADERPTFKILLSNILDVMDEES
C-src, sequence (P12931 whole entry): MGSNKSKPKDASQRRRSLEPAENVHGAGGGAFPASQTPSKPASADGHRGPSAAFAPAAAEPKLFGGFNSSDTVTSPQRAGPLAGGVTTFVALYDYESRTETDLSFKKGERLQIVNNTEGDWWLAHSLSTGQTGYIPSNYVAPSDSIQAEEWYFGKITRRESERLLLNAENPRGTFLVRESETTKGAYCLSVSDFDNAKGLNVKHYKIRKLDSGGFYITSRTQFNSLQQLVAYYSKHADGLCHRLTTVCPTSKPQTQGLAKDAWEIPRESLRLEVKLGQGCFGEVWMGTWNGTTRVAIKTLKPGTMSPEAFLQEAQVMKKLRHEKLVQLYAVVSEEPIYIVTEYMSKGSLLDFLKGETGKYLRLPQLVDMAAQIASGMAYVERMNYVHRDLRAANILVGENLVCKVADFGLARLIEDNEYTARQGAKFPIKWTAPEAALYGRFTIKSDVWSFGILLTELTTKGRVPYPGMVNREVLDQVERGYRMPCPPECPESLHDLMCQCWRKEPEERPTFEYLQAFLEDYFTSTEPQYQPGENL
BLK, sequence (P51451 whole entry): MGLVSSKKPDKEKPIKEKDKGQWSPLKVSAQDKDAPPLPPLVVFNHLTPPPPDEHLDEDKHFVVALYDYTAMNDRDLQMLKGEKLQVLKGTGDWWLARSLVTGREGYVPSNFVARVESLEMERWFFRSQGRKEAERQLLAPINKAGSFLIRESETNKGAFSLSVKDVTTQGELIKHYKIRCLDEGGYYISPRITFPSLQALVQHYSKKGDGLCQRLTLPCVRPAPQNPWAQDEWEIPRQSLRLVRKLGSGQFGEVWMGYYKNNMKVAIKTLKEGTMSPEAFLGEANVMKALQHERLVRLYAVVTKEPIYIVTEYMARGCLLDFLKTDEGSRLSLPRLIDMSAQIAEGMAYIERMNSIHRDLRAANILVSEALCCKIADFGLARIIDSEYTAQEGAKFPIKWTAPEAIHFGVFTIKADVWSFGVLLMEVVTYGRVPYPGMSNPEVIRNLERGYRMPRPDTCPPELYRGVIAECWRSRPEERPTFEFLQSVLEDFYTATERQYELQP
Lyn, sequence (P07948 whole entry): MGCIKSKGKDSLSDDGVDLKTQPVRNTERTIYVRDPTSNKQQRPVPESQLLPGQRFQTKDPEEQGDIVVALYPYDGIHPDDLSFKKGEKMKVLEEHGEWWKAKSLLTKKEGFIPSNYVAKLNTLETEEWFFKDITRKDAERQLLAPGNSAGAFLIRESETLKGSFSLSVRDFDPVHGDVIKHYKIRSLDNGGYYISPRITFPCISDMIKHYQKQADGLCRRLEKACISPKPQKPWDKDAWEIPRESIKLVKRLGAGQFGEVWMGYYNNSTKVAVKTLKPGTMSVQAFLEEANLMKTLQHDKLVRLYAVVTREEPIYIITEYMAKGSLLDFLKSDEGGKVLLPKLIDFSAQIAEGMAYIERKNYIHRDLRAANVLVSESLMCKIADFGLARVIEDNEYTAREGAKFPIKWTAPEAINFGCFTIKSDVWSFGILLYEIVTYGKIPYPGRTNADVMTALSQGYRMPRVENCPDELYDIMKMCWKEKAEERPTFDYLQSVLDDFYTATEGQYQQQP
Lck, sequence (P06239 whole entry): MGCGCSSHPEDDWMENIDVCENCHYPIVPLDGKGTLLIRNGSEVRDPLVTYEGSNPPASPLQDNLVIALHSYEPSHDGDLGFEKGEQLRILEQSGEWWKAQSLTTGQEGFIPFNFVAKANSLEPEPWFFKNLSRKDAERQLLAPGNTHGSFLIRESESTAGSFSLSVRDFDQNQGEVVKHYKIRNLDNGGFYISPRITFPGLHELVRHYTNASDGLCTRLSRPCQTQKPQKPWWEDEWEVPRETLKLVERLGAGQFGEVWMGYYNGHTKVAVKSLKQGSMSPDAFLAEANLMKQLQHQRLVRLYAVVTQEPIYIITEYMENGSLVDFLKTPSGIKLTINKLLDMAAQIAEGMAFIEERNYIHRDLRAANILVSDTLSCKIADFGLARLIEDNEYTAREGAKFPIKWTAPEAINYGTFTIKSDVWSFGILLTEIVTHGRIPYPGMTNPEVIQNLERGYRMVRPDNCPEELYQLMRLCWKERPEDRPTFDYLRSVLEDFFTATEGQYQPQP
EGFR, sequence (P00533 25-1210): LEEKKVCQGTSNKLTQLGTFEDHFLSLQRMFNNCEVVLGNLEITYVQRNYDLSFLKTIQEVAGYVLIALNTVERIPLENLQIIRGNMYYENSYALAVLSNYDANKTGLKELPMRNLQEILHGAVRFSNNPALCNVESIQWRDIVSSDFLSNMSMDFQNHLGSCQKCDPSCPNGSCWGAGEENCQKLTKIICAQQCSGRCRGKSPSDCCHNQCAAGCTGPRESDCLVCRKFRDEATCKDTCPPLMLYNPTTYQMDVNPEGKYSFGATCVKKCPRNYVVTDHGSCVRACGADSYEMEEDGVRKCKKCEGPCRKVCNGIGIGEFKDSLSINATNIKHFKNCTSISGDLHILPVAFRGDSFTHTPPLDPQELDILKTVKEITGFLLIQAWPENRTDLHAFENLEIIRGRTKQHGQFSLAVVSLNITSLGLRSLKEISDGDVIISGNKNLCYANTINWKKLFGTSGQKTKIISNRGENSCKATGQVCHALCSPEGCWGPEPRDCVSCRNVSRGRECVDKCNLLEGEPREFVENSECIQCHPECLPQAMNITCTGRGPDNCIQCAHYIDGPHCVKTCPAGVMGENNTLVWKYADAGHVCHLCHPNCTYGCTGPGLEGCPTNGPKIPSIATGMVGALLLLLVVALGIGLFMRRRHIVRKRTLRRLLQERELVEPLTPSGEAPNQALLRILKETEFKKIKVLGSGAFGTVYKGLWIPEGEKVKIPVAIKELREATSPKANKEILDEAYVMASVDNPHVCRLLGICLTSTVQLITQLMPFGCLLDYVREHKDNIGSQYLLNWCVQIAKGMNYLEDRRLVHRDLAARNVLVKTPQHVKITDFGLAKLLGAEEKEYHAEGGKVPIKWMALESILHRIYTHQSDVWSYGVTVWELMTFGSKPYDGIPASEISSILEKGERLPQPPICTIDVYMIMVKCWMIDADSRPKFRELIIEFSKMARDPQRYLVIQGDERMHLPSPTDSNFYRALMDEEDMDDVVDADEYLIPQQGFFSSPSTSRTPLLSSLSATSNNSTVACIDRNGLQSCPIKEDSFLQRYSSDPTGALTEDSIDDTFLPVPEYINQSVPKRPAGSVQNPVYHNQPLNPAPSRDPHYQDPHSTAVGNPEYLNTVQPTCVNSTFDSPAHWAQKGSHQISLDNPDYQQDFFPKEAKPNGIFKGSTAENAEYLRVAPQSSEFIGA

SMILES | IC50 (Tec) [nM] | IC50 (Btk) [nM] | IC50 (EGFR) [nM] | IC50 (BMX) [nM] | IC50 (RET) [nM] | IC50 (Lyn) [nM] | IC50 (C-src) [nM] | IC50 (Lck) [nM] | IC50 (BLK) [nM] | IC50 (CSK) [nM]
COc1cc(-c2nn([C@@H]3CCN(C(=O)/C=C/CN(C)C)C3)c3ncnc(N)c23)ccc1C [Example 9, (R,E)-1-(3-(4-amino-3-(3-methoxy-4-methylphenyl)-1H-pyrazolo[3,4-d]pyrimidin-1-yl)pyrrolidin-1-yl)-4-(dimethylamino)but-2-en-1-one] | < 100 | < 100 | < 100 | < 100 | > 1000 | 100 to 1000 | < 100 | < 100 | < 100 | 100 to 1000
CN(C/C=C/C(=O)N1CC[C@@H](n2nc(-c3ccc(Cl)cc3)c3c(N)ncnc32)C1)C1CCC1 [Example 10, (R,E)-1-(3-(4-amino-3-(4-chlorophenyl)-1H-pyrazolo[3,4-d]pyrimidin-1-yl)pyrrolidin-1-yl)-4-(cyclobutyl(methyl)amino)but-2-en-1-one] | < 100 | < 100 | 100 to 1000 | < 100 | 100 to 1000 | > 1000 | > 1000 | 100 to 1000 | 100 to 1000 | > 1000
CN(C/C=C/C(=O)N1CC[C@@H](n2nc(-c3ccc(F)cc3)c3c(N)ncnc32)C1)C1CCC1 [Example 11, (R,E)-1-(3-(4-amino-3-(4-fluorophenyl)-1H-pyrazolo[3,4-d]pyrimidin-1-yl)pyrrolidin-1-yl)-4-(cyclobutyl(methyl)amino)but-2-en-1-one] | < 100 | < 100 | > 1000 | < 100 | > 1000 | > 1000 | > 1000 | 100 to 1000 | > 1000 | > 1000
Cc1ccc(-c2nn([C@@H]3CCN(C(=O)/C=C/CN(C)C4CCC4)C3)c3ncnc(N)c23)cc1 [Example 12, (R,E)-1-(3-(4-amino-3-p-tolyl-1H-pyrazolo[3,4-d]pyrimidin-1-yl)pyrrolidin-1-yl)-4-(cyclobutyl(methyl)amino)but-2-en-1-one] | < 100 | < 100 | > 1000 | < 100 | 100 to 1000 | > 1000 | 100 to 1000 | 100 to 1000 | 100 to 1000 | > 1000
COc1cccc(-c2nn([C@@H]3CCN(C(=O)/C=C/CN(C)C4CCC4)C3)c3ncnc(N)c23)c1 [Example 13, (R,E)-1-(3-(4-amino-3-(3-methoxyphenyl)-1H-pyrazolo[3,4-d]pyrimidin-1-yl)pyrrolidin-1-yl)-4-(cyclobutyl(methyl)amino)but-2-en-1-one] | < 100 | < 100 | > 1000 | < 100 | > 1000 | > 1000 | > 1000 | 100 to 1000 | 100 to 1000 | > 1000
CN(C)C/C=C/C(=O)N(C)c1ccc(-n2nc(-c3ccc(Cl)cc3)c3c(N)ncnc32)cc1 [Example 14, (E)-N-(4-(4-amino-3-(4-chlorophenyl)-1H-pyrazolo[3,4-d]pyrimidin-1-yl)phenyl)-4-(dimethylamino)-N-methylbut-2-enamide] | < 100 | < 100 | 100 to 1000 | < 100 | 100 to 1000 | 100 to 1000 | < 100 | 100 to 1000 | 100 to 1000 | 100 to 1000
CN(C)C/C=C/C(=O)N(C)c1cccc(-n2nc(-c3ccc(Cl)cc3)c3c(N)ncnc32)c1 [Example 21, (E)-N-(3-(4-amino-3-(4-chlorophenyl)-1H-pyrazolo[3,4-d]pyrimidin-1-yl)phenyl)-4-(dimethylamino)-N-methylbut-2-enamide] | < 100 | < 100 | < 100 | < 100 | > 1000 | > 1000 | 100 to 1000 | 100 to 1000 | < 100 | > 1000
COc1cc(-c2nn(-c3cccc(N(C)C(=O)/C=C/CN(C)C4CCC4)c3)c3ncnc(N)c23)ccc1C [Example 23, (E)-N-(3-(4-amino-3-(3-methoxy-4-methylphenyl)-1H-pyrazolo[3,4-d]pyrimidin-1-yl)phenyl)-4-(cyclobutyl(methyl)amino)-N-methylbut-2-enamide] | < 100 | < 100 | < 100 | < 100 | > 1000 | < 100 | < 100 | 100 to 1000 | < 100 | > 1000
CN(C)C/C=C/C(=O)Nc1cccc(-n2nc(-c3ccc(Cl)cc3)c3c(N)ncnc32)c1 [Example 27, (E)-N-(3-(4-amino-3-(4-chlorophenyl)-1H-pyrazolo[3,4-d]pyrimidin-1-yl)phenyl)-4-(dimethylamino)but-2-enamide] | < 100 | < 100 | < 100 | < 100 | 100 to 1000 | 100 to 1000 | < 100 | < 100 | < 100 | 100 to 1000
